# pIC50: −log10 of the molar value.
# Molecular target: HPK1 (MAP4K1) (Homo sapiens, UniProt Q92918)
# Assay: HPK1 (MAP4K1) kinase Lantha screen assay
# Assay type: biochemical
# Protocol: The effect of the compounds on the activity of HPK1 (MAP4K1) kinase were assessed by Lantha screen assay. • 1. 1×kinase buffer was prepared (50 mM HEPES, pH 7.5, 10 mM MgCl2, 4 mM DT • 2. Compound and assay plates preparation: • 2-1) The compound was diluted to 100× of the final desired highest inhibitor concentration in reaction by 100% DMSO. For example, if a compound was tested at […], then a solution at 500 µM in DMSO was prepared in this step. • 2-2) For each tested compound, the compound was transferred in tubes to one well on a 96-well storage plate and serially diluted by transferring […] of 100% DMSO in the next well and so forth for a total of 6 concentrations. • 2-3) 100 μl of 100% DMSO were added to two empty wells to serve as no compound control and no enzyme control in the same 96-well plate. The resulting plate was labeled as the source plate. • 2-4) 40 μl of compound from source plate were transferred to a new 384-well Echo plate as the intermediate plate. 100 nl of each well from the 384-well Echo plate were transferred to a 384-well assay plate in duplicates. For example, A1 of the 384-well Echo plate was transferred to A1 and A2 of the 384-well plate. A2 of the 384-well Echo plate was transferred to A3 and A4 of the 384-well plate, and so on; • 3. Kinase reaction: a solution of MAP4K1 in 1× kinase buffer at 2-fold the final concentration of each reagent in the assay was prepared. 5 μl of kinase solution was added to each well of the assay plate, except for control wells without enzyme (add 5 μl of 1× kinase buffer instead). The plate was then shaken, then incubated at room temperature for 10 min. A substrate solution of Fluorescein-PKC and ATP in 1× kinase reaction buffer at 2-fold of the final concentration of each reagent desired in the assay was prepared. 5 μl of substrate solution was added to each well of the assay plate to start reaction. The plate was shaken, then covered, and incubated at room temperature for 90 minutes.
# Kinase detection: detection solution of 2-fold of final concentration in Antibody Dilution Buffer was prepared. 10 μl of detection solution was added to each well of the assay plate to stop the reaction. The mixtures were mixed briefly with Centrifuge and incubated at room temperature 60 minutes before reading on a plate reader for fluorescence. Data was collected on Envision with excitation at 340 nm and emission at 520 nm and 495 nm.
# HPK1 (MAP4K1), sequence (Q92918 whole entry, species assumed): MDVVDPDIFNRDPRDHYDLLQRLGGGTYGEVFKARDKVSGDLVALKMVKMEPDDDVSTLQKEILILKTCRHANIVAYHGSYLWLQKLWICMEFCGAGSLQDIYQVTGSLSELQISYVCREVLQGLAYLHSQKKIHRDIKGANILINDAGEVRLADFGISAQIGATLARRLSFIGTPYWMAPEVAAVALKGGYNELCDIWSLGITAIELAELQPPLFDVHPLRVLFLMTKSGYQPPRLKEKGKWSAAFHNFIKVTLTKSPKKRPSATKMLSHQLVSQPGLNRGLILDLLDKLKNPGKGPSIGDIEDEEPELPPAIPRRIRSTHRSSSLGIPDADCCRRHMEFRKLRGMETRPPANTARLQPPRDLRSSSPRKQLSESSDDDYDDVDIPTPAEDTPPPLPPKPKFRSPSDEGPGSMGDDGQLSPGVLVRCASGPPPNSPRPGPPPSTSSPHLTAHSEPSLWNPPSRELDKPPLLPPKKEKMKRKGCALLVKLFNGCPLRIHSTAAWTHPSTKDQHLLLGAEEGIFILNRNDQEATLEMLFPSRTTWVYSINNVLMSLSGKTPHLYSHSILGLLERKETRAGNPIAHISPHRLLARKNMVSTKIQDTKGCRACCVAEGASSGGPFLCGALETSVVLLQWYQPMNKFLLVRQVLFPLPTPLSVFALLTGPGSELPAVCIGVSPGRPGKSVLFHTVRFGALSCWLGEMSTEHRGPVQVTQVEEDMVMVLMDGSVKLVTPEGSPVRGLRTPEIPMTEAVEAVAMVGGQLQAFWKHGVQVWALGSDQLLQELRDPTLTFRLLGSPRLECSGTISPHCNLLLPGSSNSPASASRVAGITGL
row,pIC50,SMILES
1,5.00 to 7.00,"CNc1ncc2c(n1)N1CCN=C1C(c1cc(NC(=O)c3cc(C(F)(F)F)c[nH]c3=O)ccc1C)=C2 [Compound 153, N-(4-methyl-3-(2-(methylamino)-8,9-dihydroimidazo[1′,2′:1,6]pyrido[2,3-d]pyrimidin-6-yl)phenyl)-2-oxo-5-(trifluoromethyl)-1,2-dihydropyridine-3-carboxamide]"
2,< 5.00,"CNc1nc(C)c2c(n1)N1CCN=C1C(c1cc(NC(=O)c3cc(C(F)(F)F)ccn3)ccc1Cl)=C2 [Compound 123, N-(4-chloro-3-(4-methyl-2-(methylamino)-8,9-dihydroimidazo[1′,2′:1,6]pyrido[2,3-d]pyrimidin-6-yl)phenyl)-4-(trifluoromethyl)picolinamide]"
3,< 5.00,"CNc1ncc2c(n1)N1CCN=C1C(c1cc(NC(=O)c3ccnc(C(F)(F)F)n3)ccc1C)=C2 [Compound 147, N-(4-methyl-3-(2-(methylamino)-8,9-dihydroimidazo[1′,2′:1,6]pyrido[2,3-d]pyrimidin-6-yl)phenyl)-2-(trifluoromethyl)pyrimidine-4-carboxamide]"
4,> 7.00,"CNc1ncc2c(n1)N1CCN=C1C(c1cc(NC(=O)c3cccc(C(C)(C)O)c3)ccc1C)=C2 [Compound 170, 3-(2-hydroxypropan-2-yl)-N-(4-methyl-3-(2-(methylamino)-8,9-dihydroimidazo[1′,2′:1,6]pyrido[2,3-d]pyrimidin-6-yl)phenyl)benzamide]"
5,> 7.00,"COc1ncccc1Nc1ncc2c(n1)N1CCN=C1C(c1cc(NC(=O)c3cc(C(F)(F)F)ccn3)ccc1C)=C2 [Compound 222, N-(3-(2-((2-methoxypyridin-3-yl)amino)-8,9-dihydroimidazo[1′,2′:1,6]pyrido[2,3-d]pyrimidin-6-yl)-4-methylphenyl)-4-(trifluoromethyl)picolinamide]"
6,5.00 to 7.00,"Cc1ccc(NC(=O)c2cc(C(F)(F)F)ccn2)cc1C1=Cc2cnc(Nc3cnccc3O)nc2N2CCN=C12 [Compound 224, N-(3-(2-((4-hydroxypyridin-3-yl)amino)-8,9-dihydroimidazo[1′,2′:1,6]pyrido[2,3-d]pyrimidin-6-yl)-4-methylphenyl)-4-(trifluoromethyl)picolinamide]"
7,5.00 to 7.00,"Cc1ccc(NC(=O)c2cc(C(F)(F)F)ccn2)cc1C1=Cc2cnc(Nc3ncccc3F)nc2N2CCN=C12 [Compound 220, N-(3-(2-((3-fluoropyridin-2-yl)amino)-8,9-dihydroimidazo[1′,2′:1,6]pyrido[2,3-d]pyrimidin-6-yl)-4-methylphenyl)-4-(trifluoromethyl)picolinamide]"
8,> 7.00,"Cc1ccc(Nc2ncc3c(n2)N2CCN=C2C(c2cc(NC(=O)c4cc(C(F)(F)F)ccn4)ccc2C)=C3)cc1F [Compound 228, N-(3-(2-((3-fluoro-4-methylphenyl)amino)-8,9-dihydroimidazo[1′,2′:1,6]pyrido[2,3-d]pyrimidin-6-yl)-4-methylphenyl)-4-(trifluoromethyl)picolinamide]"
9,> 7.00,"Cc1cc(F)c(NC(=O)c2cc(C(F)(F)F)ccn2)cc1C1=Cc2cnc(Nc3ccn(C)n3)nc2N2CCN=C12 [Compound 269, N-(2-fluoro-4-methyl-5-(2-((1-methyl-1H-pyrazol-3-yl)amino)-8,9-dihydroimidazo[1′,2′:1,6]pyrido[2,3-d]pyrimidin-6-yl)phenyl)-4-(trifluoromethyl)picolinamide]"
10,> 7.00,"O=C(Nc1ccc(Cl)c(C2=Cc3cnc(NC4CCOCC4)nc3N3CCN=C23)c1)c1cc(C(F)(F)F)ccn1 [Compound 138, N-(4-chloro-3-(2-((tetrahydro-2H-pyran-4-yl)amino)-8,9-dihydroimidazo[1′,2′:1,6]pyrido[2,3-d]pyrimidin-6-yl)phenyl)-4-(trifluoromethyl)picolinamide]"
11,< 5.00,"CNc1ncc2c(n1)N1CCN=C1C(c1ccc(F)c(C(=O)Nc3cc(C(F)(F)F)ccn3)c1)=C2 [Compound 278, 2-fluoro-5-(2-(methylamino)-8,9-dihydroimidazo[1′,2′:1,6]pyrido[2,3-d]pyrimidin-6-yl)-N-(4-(trifluoromethyl)pyridin-2-yl)benzamide]"
12,5.00 to 7.00,"CNc1ncc2c(n1)N1CCCN=C1C(c1cc(NC(=O)c3cc(C(F)(F)F)ccn3)ccc1C)=C2 [Compound 105, N-(4-methyl-3-(2-(methylamino)-9,10-dihydro-8H-pyrido[1,6-a:2,3-d′]dipyrimidin-6-yl)phenyl)-4-(trifluoromethyl)picolinamide]"
13,5.00 to 7.00,"CNc1cc2c(cn1)C=C(c1cc(NC(=O)c3cc(C(F)(F)F)ccn3)ccc1C)C1=NCCN12 [Compound 132, N-(4-methyl-3-(8-(methylamino)-1,2-dihydroimidazo[1,2-a][1,6]naphthyridin-4-yl)phenyl)-4-(trifluoromethyl)picolinamide]"
14,5.00 to 7.00,"Cc1cc(F)c(NC(=O)c2cccc(C(C)(C)C#N)n2)cc1C1=Cc2cnc(NC3COC3)nc2N2CCN=C12 [Compound 182, 6-(2-cyanopropan-2-yl)-N-(2-fluoro-4-methyl-5-(2-(oxetan-3-ylamino)-8,9-dihydroimidazo[1′,2′:1,6]pyrido[2,3-d]pyrimidin-6-yl)phenyl)picolinamide]"
15,> 7.00,"CNc1ncc2c(n1)N1CCN=C1C(c1cc(NC(=O)c3cc(C(F)(F)F)ccn3)c(Cl)cc1C)=C2 [Compound 133, N-(2-chloro-4-methyl-5-(2-(methylamino)-8,9-dihydroimidazo[1′,2′:1,6]pyrido[2,3-d]pyrimidin-6-yl)phenyl)-4-(trifluoromethyl)picolinamide]"
16,> 7.00,"O=C(Nc1ccc(Cl)c(C2=Cc3cnc(NC4COC4)nc3N3CCN=C23)c1)c1cc(C(F)(F)F)ccn1 [Compound 137, N-(4-chloro-3-(2-(oxetan-3-ylamino)-8,9-dihydroimidazo[1′,2′:1,6]pyrido[2,3-d]pyrimidin-6-yl)phenyl)-4-(trifluoromethyl)picolinamide]"
17,> 7.00,"Cc1ccc(NC(=O)c2cc(C(F)(F)F)ccn2)cc1C1=Cc2cnc(Nc3ccncc3)nc2N2CCN=C12 [Compound 214, N-(4-methyl-3-(2-(pyridin-4-ylamino)-8,9-dihydroimidazo[1′,2′:1,6]pyrido[2,3-d]pyrimidin-6-yl)phenyl)-4-(trifluoromethyl)picolinamide]"
18,> 7.00,"CNc1ncc2c(n1)N1CCN=C1C(c1cc(NC(=O)c3cc(C(C)(C)C#N)ccn3)c(F)cc1C)=C2 [Compound 165, 4-(2-cyanopropan-2-yl)-N-(2-fluoro-4-methyl-5-(2-(methylamino)-8,9-dihydroimidazo[1′,2′:1,6]pyrido[2,3-d]pyrimidin-6-yl)phenyl)picolinamide]"
19,< 5.00,"Cc1cc(F)c(NC(=O)C2(C(=O)Nc3ccc(F)cc3)CC2)cc1C1=Cc2cnc(NC3COC3)nc2N2CCN=C12 [Compound 344, N-(2-fluoro-4-methyl-5-(2-(oxetan-3-ylamino)-8,9-dihydroimidazo[1′,2′:1,6]pyrido[2,3-d]pyrimidin-6-yl)phenyl)-N-(4-fluorophenyl)cyclopropane-1,1-dicarboxamide]"
20,5.00 to 7.00,"CNc1ncc2c(n1)N1CCN=C1C(c1cc(NC(=O)c3cn(C(C)C)c(=O)n(-c4ccc(F)cc4)c3=O)c(F)cc1C)=C2 [Compound 194, N-(2-fluoro-4-methyl-5-(2-(methylamino)-8,9-dihydroimidazo[1′,2′:1,6]pyrido[2,3-d]pyrimidin-6-yl)phenyl)-3-(4-fluorophenyl)-1-isopropyl-2,4-dioxo-1,2,3,4-tetrahydropyrimidine-5-carboxamide]"
21,> 7.00,"Cc1ccc(Nc2ncc3c(n2)N2CCN=C2C(c2cc(NC(=O)c4cc(C(F)(F)F)ccn4)ccc2C)=C3)c(C)n1 [Compound 211, N-(3-(2-((2,6-dimethylpyridin-3-yl)amino)-8,9-dihydroimidazo[1′,2′:1,6]pyrido[2,3-d]pyrimidin-6-yl)-4-methylphenyl)-4-(trifluoromethyl)picolinamide]"
22,< 5.00,"CNc1ncc2c(n1)N1CCN=C1C(c1cc(NS(=O)(=O)c3cccc(C(F)(F)F)c3)ccc1C)=C2 [Compound 283, N-(4-methyl-3-(2-(methylamino)-8,9-dihydroimidazo[1′,2′:1,6]pyrido[2,3-d]pyrimidin-6-yl)phenyl)-3-(trifluoromethyl)benzenesulfonamide]"
23,5.00 to 7.00,"CNc1ncc2c(n1)N1CCN=C1C(c1cc(NC(=O)c3cc(C(F)(F)F)ncn3)ccc1C)=C2 [Compound 151, N-(4-methyl-3-(2-(methylamino)-8,9-dihydroimidazo[1′,2′:1,6]pyrido[2,3-d]pyrimidin-6-yl)phenyl)-6-(trifluoromethyl)pyrimidine-4-carboxamide]"

# — patent US20230303570A1, “KINASE INHIBITORS AND USES THEREOF” (ABM Therapeutics Corporation, priority 2020, published 2023)
